Earlier results on 4 compounds are cited in patent publication US20100158923A1, “REDUCING POLYGLUTAMINE-BASED AGGREGATION” (Northwestern University, priority 2003, published 2010).

One data set concerns IGF-1 levels. Particulars: administered subcutaneously.
Another data set relates to GH release. To be noted: administered orally and parenterally.
The next data set has as its target human SST2 (Homo sapiens, UniProt P30874).

human SST2, sequence (P30874 whole entry): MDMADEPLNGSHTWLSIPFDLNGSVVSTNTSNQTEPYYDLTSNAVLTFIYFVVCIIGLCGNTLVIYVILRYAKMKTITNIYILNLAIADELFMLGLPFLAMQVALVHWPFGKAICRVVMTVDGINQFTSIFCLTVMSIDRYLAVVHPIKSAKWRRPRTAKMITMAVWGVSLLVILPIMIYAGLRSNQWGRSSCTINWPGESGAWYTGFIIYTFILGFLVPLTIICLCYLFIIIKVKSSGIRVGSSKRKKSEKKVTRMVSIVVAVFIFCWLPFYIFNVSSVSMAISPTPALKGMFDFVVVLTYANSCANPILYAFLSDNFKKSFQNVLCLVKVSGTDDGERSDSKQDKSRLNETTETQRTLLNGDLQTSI

As to “Pegvisomant: modified human GH in which nine amino acids have been replaced, with polyethylene glycol polymers; GH receptor antagonist”, the “effect on IGF-1 levels” value in the data set with IGF-1 levels is “dose dependent reduction”. As for `CC(C)(N)C(=O)N[C@H](COCc1ccccc1)C(=O)N1CCC2(CC1)CN(S(C)(=O)=O)c1ccccc12` [MK-0677], in the data set with GH release, the GH-releasing effects entry is given as “potent GH-releasing effects”. Regarding “[N-acetyl-Tyr^1,D-Arg^2] GHRH^1-29NH2 [standard GHRH antagonist]”, the “effect on human GH secretory response to exogenous GHRH” value in the data set on GH secretion (response to exogenous GHRH) is on record as “inhibits”. Besides, in the data set with GH secretion (spontaneous GH secretion), the “effect on spontaneous GH secretion” value is “lowers”. Turning to `CC(C)(C)OC(=O)[C@H](CCCCN)NC(=O)[C@@H](Cc1c[nH]c2ccccc12)NC(=O)N1CCC(n2c(=O)[nH]c3ccccc32)CC1` [L-054,522], the selectivity result on human SST2 (SST2 binding, comparison receptors not stated) is “highly selective”. For the same compound, the Kd on human SST2 (binding to human SST2, read-out: apparent Kd) was 0.01 nM.
